Data set [1] relates to U2OS cells. Put plainly: Cell-cycle analysis (PI stain, flow cytometry), U2OS. It is filed as cell-based, human. The following applies: 5 μM. On the procedure: (§1) For this reason, we decided to analyze the effects on proliferation by treating the cells only with 8. Next, we explored the effect of 5 μM 8 on cell-cycle distribution in HeLa, U2OS, and SH-SY5Y cancer cells using PI stain followed by flow cytometry. Cells were exposed to the compound for 24 or 48 h prior to processing and analysis.
(§2) The effects on the HeLa and U2OS cell cycles were studied after 24 or 48 h of treatment with 5 μM 8. Cells were detached with 0.11% trypsin, washed in PBS and centrifuged. The pellet was resuspended in 0.01% Nonidet P-40, 10 μg/mL RNase, 0.1% sodium citrate, and 50 μg/mL PI, for 30 min at room temperature in the dark. Flow cytometric analyses were performed as previously described.
On the technique in general: A flow cytometer gives signals particle by particle.

Data set [2] relates to U2OS cells. Description: Intracellular ROS level (DCFDA), U2OS. The following applies: 5 μM 8 or 30 μM 11; for increase in ROS formation with respect to control: 1 h; for ROS production: 48 h. It is filed as cell-based, human. Here is the method:
(§3) To further explore and establish a direct relationship between 8 or 11 and ROS, DCFH-DA staining was applied to HeLa, U2OS, and SH-SY5Y cells treated for 1 h and 48 h. […] Indeed, in HeLa cells, 8 induced an increase in ROS formation of 1.14 ± 0.042, while in U2OS and SH-SY5Y cells, the increases were 1.30 ± 0.13-fold and 1.51 ± 0.16-fold with respect to control, with p < 0.0001, p < 0.0005, and p < 0.0024, respectively. In the same way, 11 induced increases in ROS formation in HeLa cells of 1.27 ± 0.16, while in U2OS and SH-SY5Y cells, the increases were 1.62 ± 0.11-fold and 1.61 ± 0.14-fold with respect to control, with p < 0.0049, p < 0.0001, and p < 0.0056, respectively. Moreover, it is important to note that both compounds 8 and 11 induced a greater formation of ROS in U2OS and SH-SY5Y cells than in HeLa cells, as shown in Figure 5A.
(§4) Oxidative stress was measured in intact cells using an ROS indicator, 2′,7′-dichlorodihydrofluorescein diacetate (DCFDA; Thermo Fisher Scientific, Waltham, MA, USA). HeLa, U2OS, and SH-SY5Y cells were seeded in 96-well plates at 1.5 × 10^4 cells/well (Optiplate, Perkin Elmer, Milan, Italy), and after 24 h to allow adhesion, HeLa and SH-SY5Y cells were incubated with 5 μM GA 462 or 20 μM SM71, while U2OS were treated with 5 μM 8 or 30 μM 11, dissolved in complete medium for 1 or 48 h at 37 °C in 5% CO2 atmosphere. After this time, cells were washed with PBS and treated with 10 μM DCFDA in culture medium for 30 min. Finally, cells were washed again with PBS and the fluorescence value in each well was measured (λexc = 488 nm; λem = 530 nm) with a plate reader (Tecan, Männedorf, Switzerland). Fluorescence emission was normalized to protein content measured using the Bradford method.

Data set [3] deals with HeLa, SH-SY5Y, SaOS2, and U2OS. Put plainly: MTT cell viability assay, all malignant cell lines tested (summary). Type of data set: cell-based, human. Conditions: summary over HeLa, 48 h; for IC50: Homo sapiens, read-out: IC50 values against all the malignant cell lines tested. Here is the method:
(§5) Molecules 8–12 were tested in vitro using the MTT assay against four cancer cell lines: HeLa, SH-SY5Y, SaOS2, and U2OS. […] Cytotoxic activities were expressed as IC50 values, i.e., the concentration of the substance that reduced cell viability by 50% (Table 2).
(§6) HeLa, SH-SY5Y, SaOS2, U2OS, and HDFa cell lines were purchased from American Type Culture Collection (ATCC; Manassas, VA, USA). HeLa, SaOS2, and U2OS cells were cultured in RPMI 1640 medium (Labtek Eurobio, Milan, Italy), while SH-SY5Y and HDFa cells were cultured in high-glucose DMEM (Labtek Eurobio, Milan, Italy), and both were supplemented with 10% FCS (Euroclone, Milan, Italy) and 2mM L-glutamine (Sigma-Aldrich, Milan, Italy), at 37 °C in a 5% CO2 atmosphere. The compounds were dissolved in DMSO in a 30–50 mM stock solution. In cell treatments, the final DMSO concentration never exceeded 0.1%.
(§7) Cells were seeded at 1.5 × 10^4 cells/well in a 96-well culture plastic plate (Orange Scientific, Braine-l’Alleud, Belgium), and after 24 h of growth, they were exposed to increasing concentrations of compounds (from 0.01 to 200 μM) solubilized in RPMI 1640 medium. After 48 h of treatment, the culture medium was replaced with 0.1 mL of 3-(4,5-dimethylthiazolyl-2)-2,5-diphenyltetrazolium bromide (MTT; Sigma-Aldrich, Milan, Italy) dissolved in PBS at the concentration of 0.2 mg/mL, and samples were incubated for 2 h at 37 °C. The formazan salt crystals formed were dissolved with 0.2 mL of isopropyl alcohol for 20 min. The absorbance at 570 nm was measured using a multi-well plate reader (Tecan, Männedorf, Switzerland), and data were analyzed using Prism GraphPad software and expressed as IC50.

Data set [4] deals with HeLa cells. Description: Intracellular ROS level (DCFDA), HeLa. Type of data set: cell-based, human. On the procedure: as §3, §4
The next data set relates to U2OS. Description: MTT cell viability assay, U2OS. Type of data set: cell-based. The following applies: Homo sapiens, 48 h treatment, 0.01 to 200 μM, ± SD, n.a. = not active. Here is the method: as §5, §6, §7
The subject of another data set is SaOS2. Description: MTT cell viability assay, SaOS2. The following applies: Homo sapiens, SAOS-2, 48 h treatment, 0.01 to 200 μM, ± SD, n.a. = not active. Type of data set: cell-based. On the procedure: as §5, §6, §7
A general note: Tetrazolium assays rely on reduction of a dye to a coloured formazan, in cell work by metabolically active cells.

Data set [5] relates to SH-SY5Y cells. Put plainly: Cell-cycle analysis (PI stain, flow cytometry), SH-SY5Y. It is filed as cell-based, human. Conditions: 5 μM. On the procedure:
as §1, §2

For data set [6], the system named is SH-SY5Y cells. Put plainly: Intracellular ROS level (DCFDA), SH-SY5Y. The following applies: for increase in ROS formation with respect to control: 1 h, 5 μM 8 (GA 462) or 20 μM 11 (SM71); for ROS production: 48 h, 5 μM 8 or 20 μM 11. Type of data set: cell-based, human. Here is the method: as §3, §4
The subject of another data set is SH-SY5Y. Description: MTT cell viability assay, SH-SY5Y. It is filed as cell-based. The following applies: Homo sapiens, 48 h treatment, 0.01 to 200 μM, ± SD, n.a. = not active. Here is the method:
as §5, §6, §7

For data set [7], the system named is HeLa cells. Description: Cell-cycle analysis (PI stain, flow cytometry), HeLa. It is filed as cell-based, human. Conditions: 5 μM. On the procedure: as §1, §2
Another data set relates to HDFa. Put plainly: MTT cell viability assay, normal cell line HDFa. The following applies: Homo sapiens, normal dermal fibroblast, 48 h treatment, ± SD. It is filed as cell-based. On the procedure: as §5, §6, §7
For another data set, the system named is HeLa. Put plainly: MTT cell viability assay, HeLa. Type of data set: cell-based. Conditions: Homo sapiens, 48 h treatment, 0.01 to 200 μM, ± SD, n.a. = not active. Here is the method: as §5, §6, §7
Where [8] appears, read: 1 h, 5 μM 8 (GA 462) or 20 μM 11 (SM71).

This note sets out measurements from publication PMC9457610, “Synthesis of thia-Michael-Type Adducts between Naphthoquinones and N-Acetyl-L-Cysteine and Their Biological Activity” (Molecules, 2022).

Molecules are shown by their SMILES.

Broadly, the IC50 is the concentration needed to halve the response being measured. As to `CC(=O)N[C@@H](CSC1=CC(=O)c2ccccc2C1=O)C(=O)O` [Compound 8, N-acetyl-S-(1,4-dioxo-1,4-dihydronaphthalen-2-yl)-L-cysteine], the “increase in S-phase cells with respect to control” value is reported as 1.3% with U2OS cells [1] (24 h) and 1.1% in the data set on SH-SY5Y cells [5] (24 h). The “accumulation of cells in the S phase with respect to control” value with U2OS cells [1] (48 h) is on record as 1.1%; in the data set on SH-SY5Y cells [5] (48 h), 1.3%. In addition, the “increase in ROS formation with respect to control” value (shortened to “increase in ROS formation”) in the data set with U2OS cells [2] is on record as 1.30 ± 0.13 fold; with HeLa cells [4] (setting [8]), 1.14 ± 0.042 fold; in the data set with HeLa cells [4] (48 h, 5 μM 8), 2.28 ± 0.47 fold; with SH-SY5Y cells [6], 1.51 ± 0.16 fold. In addition, the ROS production result in the data set with U2OS cells [2] and in the data set with SH-SY5Y cells [6] was “no ROS production” throughout. The IC50 in [3] was 500 to 1810 nM; in the data set on U2OS, 1810 ± 7 nM; in the data set with SaOS2, 1670 ± 10 nM; in the data set on SH-SY5Y, 870 ± 3 nM; in the data set on HDFa, 7430 ± 20 nM; in the data set on HeLa, 540 ± 50 nM. Moreover, in the data set with HeLa cells [7] (24 h), the “increase in the number of G0/G1-phase cells with respect to control” value turned out to be 1.3%. For the same compound, in the data set on HeLa cells [7] (48 h), the “increase in the number of cells in the S phase with respect to control” value turned out to be 1.2%.

One may read the melting point as the temperature, or range, at which the solid turns liquid. For `CC(=O)N[C@@H](CSC1=C(C)C(=O)c2ccccc2C1=O)C(=O)O` [Compound 9, N-acetyl-S-(3-methyl-1,4-dioxo-1,4-dihydronaphthalen-2-yl)-L-cysteine], the melting point lay within 206.9 to 208.3 °C. For the same compound, the IC50 in data set [3] fell in the range of 500 to 1810 nM. This compound registered an IC50 in the data set on U2OS of 510 ± 60 nM. The compound also displayed an IC50 in the data set on SaOS2 of 590 ± 40 nM. In addition, in the data set with SH-SY5Y, the midpoint of inhibition, the IC50, lay at 960 ± 60 nM. The compound further gave an IC50 with HDFa of 3870 ± 10 nM. This compound came in with an IC50 in the data set with HeLa of 500 ± 80 nM.

As to `CC(=O)N[C@@H](CSC1=C(C)C(=O)c2cccc(O)c2C1=O)C(=O)O` [Compound 10, N-acetyl-S-(8-hydroxy-3-methyl-1,4-dioxo-1,4-dihydronaphthalen-2-yl)-L-cysteine], the melting point was > 193 °C (dec.). Also, the “IC50 values against all the malignant cell lines tested” value in data set [3] was “inactive”.

Turning to `CC(=O)N[C@@H](CSC1=CC(=O)c2c(O)cccc2C1=O)C(=O)O` [Compound 11, N-acetyl-S-(5-hydroxy-1,4-dioxo-1,4-dihydronaphthalen-2-yl)-L-cysteine], the melting point lay within 209.8 to 211.7 °C. In the data set with U2OS cells [2], the “increase in ROS formation” value is listed as 1.62 ± 0.11 fold and the ROS production result is given as “no ROS production”. Moreover, the “increase in ROS formation” value in the data set with HeLa cells [4] (setting [8]) is 1.27 ± 0.16 fold. Moreover, it took 30400 ± 5 nM to reach half-maximal inhibition with U2OS (IC50). Moreover, the IC50 with SaOS2 was 25900 ± 50 nM. Moreover, in the data set on SH-SY5Y cells [6], the “increase in ROS formation” value worked out at 1.61 ± 0.14 fold and the ROS production entry was “no ROS production”. In the data set on SH-SY5Y, the half-maximal inhibitory concentration (IC50) stood at 11400 ± 1 nM. This compound also gave an IC50 in the data set on HDFa of 6880 ± 50 nM. In the data set on HeLa, the midpoint of inhibition, the IC50, lay at 13200 ± 50 nM.

`CC(=O)N[C@@H](CSC1=CC(=O)c2c(O)ccc(O)c2C1=O)C(=O)O` [Compound 12, N-acetyl-S-(5,8-dihydroxy-1,4-dioxo-1,4-dihydronaphtalen-2-yl)-L-cysteine] came in with a melting point of 238.2 to 239.9 °C. Further, the IC50 in data set [3] fell in the range of 500 to 1810 nM. The compound also yielded an IC50 in the data set on U2OS of 1650 ± 30 nM. In the data set on SaOS2, the IC50 was found to be 1560 ± 30 nM. The compound further returned an IC50 with SH-SY5Y of 630 ± 40 nM. This compound registered an IC50 in the data set with HDFa of 830 ± 7 nM. Besides, half-maximal inhibition in the data set with HeLa (IC50) required 1040 ± 8 nM.
